Legend:
Test in all cases: PRESTO-Tango GPCR screen
Type in all cases: cell-based
Conditions in all cases: 100 µM
GPR125 = target: T1, GPR125 (Homo sapiens, UniProt Q8IWK6)
T1 construct: purchased PRESTO-Tango GPCR kit (Roth lab / Addgene)
Method in brief: (§1)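 Values are luminescence fold changes over PBS control after 20 h stimulation at 100 μM final. HTLA cells had been transfected 16-24 h earlier with the relevant receptor-Tango plasmid using polyethylenimine.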

OXER1 = target: T2, OXER1 (Homo sapiens, UniProt Q8TDS5)
T2 construct: purchased PRESTO-Tango GPCR kit (Roth lab / Addgene)
Method in brief: as §1

ADORA2A = target: T3, ADORA2A (Homo sapiens, UniProt P29274)
T3 construct: purchased PRESTO-Tango GPCR kit (Roth lab / Addgene)
Method in brief: as §1

PK2 = target: T4, PK2 (Homo sapiens, UniProt Q8NFJ6)
T4 construct: purchased PRESTO-Tango GPCR kit (Roth lab / Addgene)
Method in brief: as §1

ADORA2B = target: T5, ADORA2B (Homo sapiens, UniProt P29275)
T5 construct: purchased PRESTO-Tango GPCR kit (Roth lab / Addgene)
Method in brief: as §1

LPAR4 = target: T6, LPAR4 (Homo sapiens, UniProt Q99677)
T6 construct: purchased PRESTO-Tango GPCR kit (Roth lab / Addgene)
Method in brief: as §1

P2RY12 = target: T7, P2RY12 (Homo sapiens, UniProt Q9H244)
T7 construct: purchased PRESTO-Tango GPCR kit (Roth lab / Addgene)
Method in brief: as §1

GPR20 = target: T8, GPR20 (Homo sapiens, UniProt Q99678)
T8 construct: purchased PRESTO-Tango GPCR kit (Roth lab / Addgene)
Method in brief: as §1

GPR150 = target: T9, GPR150 (Homo sapiens, UniProt Q8NGU9)
T9 construct: purchased PRESTO-Tango GPCR kit (Roth lab / Addgene)
Method in brief: as §1

GPR158 = target: T10, GPR158 (Homo sapiens, UniProt Q5T848)
T10 construct: purchased PRESTO-Tango GPCR kit (Roth lab / Addgene)
Method in brief: as §1

GPR6 = target: T11, GPR6 (Homo sapiens, UniProt P46095)
T11 construct: purchased PRESTO-Tango GPCR kit (Roth lab / Addgene)
Method in brief: as §1

GABBR1 = target: T12, GABBR1 (Homo sapiens, UniProt Q9UBS5)
T12 construct: purchased PRESTO-Tango GPCR kit (Roth lab / Addgene)
Method in brief: as §1

GIPR = target: T13, GIPR (Homo sapiens, UniProt P48546)
T13 construct: purchased PRESTO-Tango GPCR kit (Roth lab / Addgene)
Method in brief: as §1

CCRL2 = target: T14, CCRL2 (Homo sapiens, UniProt O00421)
T14 construct: purchased PRESTO-Tango GPCR kit (Roth lab / Addgene)
Method in brief: as §1

HTR1A = target: T15, HTR1A (Homo sapiens, UniProt P08908)
T15 construct: purchased PRESTO-Tango GPCR kit (Roth lab / Addgene)
Method in brief: as §1

GPRC5C = target: T16, GPRC5C (Homo sapiens, UniProt Q9NQ84)
T16 construct: purchased PRESTO-Tango GPCR kit (Roth lab / Addgene)
Method in brief: as §1

OPRD1 = target: T17, OPRD1 (Homo sapiens, UniProt P41143)
T17 construct: purchased PRESTO-Tango GPCR kit (Roth lab / Addgene)
Method in brief: as §1

MLNR = target: T18, MLNR (Homo sapiens, UniProt O43193)
T18 construct: purchased PRESTO-Tango GPCR kit (Roth lab / Addgene)
Method in brief: as §1

GPR174 = target: T19, GPR174 (Homo sapiens, UniProt Q9BXC1)
T19 construct: purchased PRESTO-Tango GPCR kit (Roth lab / Addgene)
Method in brief: as §1

GPR26 = target: T20, GPR26 (Homo sapiens, UniProt Q8NDV2)
T20 construct: purchased PRESTO-Tango GPCR kit (Roth lab / Addgene)
Method in brief: as §1

GRM7 = target: T21, GRM7 (Homo sapiens, UniProt Q14831)
T21 construct: purchased PRESTO-Tango GPCR kit (Roth lab / Addgene)
Method in brief: as §1

GHSR = target: T22, GHSR (Homo sapiens, UniProt Q92847)
T22 construct: purchased PRESTO-Tango GPCR kit (Roth lab / Addgene)
Method in brief: as §1

RXFP4 = target: T23, RXFP4 (Homo sapiens, UniProt Q8TDU9)
T23 construct: purchased PRESTO-Tango GPCR kit (Roth lab / Addgene)
Method in brief: as §1

LPAR1 = target: T24, LPAR1 (Homo sapiens, UniProt Q92633)
T24 construct: purchased PRESTO-Tango GPCR kit (Roth lab / Addgene)
Method in brief: as §1

GPR149 = target: T25, GPR149 (Homo sapiens, UniProt Q86SP6)
T25 construct: purchased PRESTO-Tango GPCR kit (Roth lab / Addgene)
Method in brief: as §1

GPR50 = target: T26, GPR50 (Homo sapiens, UniProt Q13585)
T26 construct: purchased PRESTO-Tango GPCR kit (Roth lab / Addgene)
Method in brief: as §1

RXFP3 = target: T27, RXFP3 (Homo sapiens, UniProt Q9NSD7)
T27 construct: purchased PRESTO-Tango GPCR kit (Roth lab / Addgene)
Method in brief: as §1

NPFF1 = target: T28, NPFF1 (Homo sapiens, UniProt Q9GZQ6)
T28 construct: purchased PRESTO-Tango GPCR kit (Roth lab / Addgene)
Method in brief: as §1

NTSR1 = target: T29, NTSR1 (Homo sapiens, UniProt P30989)
T29 construct: purchased PRESTO-Tango GPCR kit (Roth lab / Addgene)
Method in brief: as §1

C5A = target: T30, C5A (Homo sapiens, UniProt P21730)
T30 construct: purchased PRESTO-Tango GPCR kit (Roth lab / Addgene)
Method in brief: as §1

CCKAR = target: T31, CCKAR (Homo sapiens, UniProt P32238)
T31 construct: purchased PRESTO-Tango GPCR kit (Roth lab / Addgene)
Method in brief: as §1

CXCR2 = target: T32, CXCR2 (Homo sapiens, UniProt P25025)
T32 construct: purchased PRESTO-Tango GPCR kit (Roth lab / Addgene)
Method in brief: as §1

UTS2R = target: T33, UTS2R (Homo sapiens, UniProt Q9UKP6)
T33 construct: purchased PRESTO-Tango GPCR kit (Roth lab / Addgene)
Method in brief: as §1

GPR162 = target: T34, GPR162 (Homo sapiens, UniProt Q16538)
T34 construct: purchased PRESTO-Tango GPCR kit (Roth lab / Addgene)
Method in brief: as §1

GPRC5B = target: T35, GPRC5B (Homo sapiens, UniProt Q9NZH0)
T35 construct: purchased PRESTO-Tango GPCR kit (Roth lab / Addgene)
Method in brief: as §1

T9 sequence (Q8NGU9 whole entry): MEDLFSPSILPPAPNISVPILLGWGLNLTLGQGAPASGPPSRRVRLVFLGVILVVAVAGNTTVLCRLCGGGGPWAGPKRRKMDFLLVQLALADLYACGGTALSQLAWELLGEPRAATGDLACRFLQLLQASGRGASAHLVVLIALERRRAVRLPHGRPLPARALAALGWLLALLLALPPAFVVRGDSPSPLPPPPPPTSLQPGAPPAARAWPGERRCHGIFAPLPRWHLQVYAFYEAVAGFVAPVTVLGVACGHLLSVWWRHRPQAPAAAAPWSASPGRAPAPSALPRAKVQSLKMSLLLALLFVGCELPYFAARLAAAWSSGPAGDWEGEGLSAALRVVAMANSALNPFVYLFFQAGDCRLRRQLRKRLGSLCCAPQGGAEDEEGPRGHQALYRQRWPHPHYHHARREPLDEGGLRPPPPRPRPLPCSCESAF
T10 sequence (Q5T848 24-1215): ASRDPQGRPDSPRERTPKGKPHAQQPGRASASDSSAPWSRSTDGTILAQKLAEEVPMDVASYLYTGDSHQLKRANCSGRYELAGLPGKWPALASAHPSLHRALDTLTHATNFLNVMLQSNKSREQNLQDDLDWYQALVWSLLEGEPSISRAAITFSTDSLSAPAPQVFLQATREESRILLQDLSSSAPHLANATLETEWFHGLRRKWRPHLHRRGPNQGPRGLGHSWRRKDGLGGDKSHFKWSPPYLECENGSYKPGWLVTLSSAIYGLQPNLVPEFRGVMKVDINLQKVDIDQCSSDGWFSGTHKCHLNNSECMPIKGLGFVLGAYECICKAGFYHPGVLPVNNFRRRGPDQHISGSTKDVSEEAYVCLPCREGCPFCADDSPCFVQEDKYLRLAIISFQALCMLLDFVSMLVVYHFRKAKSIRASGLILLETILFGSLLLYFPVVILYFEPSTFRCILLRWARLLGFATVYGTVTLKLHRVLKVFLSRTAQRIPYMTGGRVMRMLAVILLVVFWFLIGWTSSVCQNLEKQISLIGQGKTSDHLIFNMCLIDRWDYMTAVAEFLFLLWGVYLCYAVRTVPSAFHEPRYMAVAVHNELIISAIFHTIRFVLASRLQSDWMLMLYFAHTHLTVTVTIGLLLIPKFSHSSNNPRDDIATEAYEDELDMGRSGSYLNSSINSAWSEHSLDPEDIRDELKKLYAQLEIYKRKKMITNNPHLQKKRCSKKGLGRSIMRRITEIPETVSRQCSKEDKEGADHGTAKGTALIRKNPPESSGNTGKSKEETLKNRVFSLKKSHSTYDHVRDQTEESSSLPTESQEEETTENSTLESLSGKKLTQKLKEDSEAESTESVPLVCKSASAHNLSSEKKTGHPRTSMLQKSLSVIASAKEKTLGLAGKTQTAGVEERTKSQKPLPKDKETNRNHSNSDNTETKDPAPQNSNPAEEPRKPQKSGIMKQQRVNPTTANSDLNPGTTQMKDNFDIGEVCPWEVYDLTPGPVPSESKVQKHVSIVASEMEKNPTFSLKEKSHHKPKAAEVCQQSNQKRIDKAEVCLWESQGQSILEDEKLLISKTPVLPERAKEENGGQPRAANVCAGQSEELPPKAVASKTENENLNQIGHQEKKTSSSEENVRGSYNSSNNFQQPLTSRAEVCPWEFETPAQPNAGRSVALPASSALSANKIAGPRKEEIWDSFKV
T13 sequence (P48546 22-466): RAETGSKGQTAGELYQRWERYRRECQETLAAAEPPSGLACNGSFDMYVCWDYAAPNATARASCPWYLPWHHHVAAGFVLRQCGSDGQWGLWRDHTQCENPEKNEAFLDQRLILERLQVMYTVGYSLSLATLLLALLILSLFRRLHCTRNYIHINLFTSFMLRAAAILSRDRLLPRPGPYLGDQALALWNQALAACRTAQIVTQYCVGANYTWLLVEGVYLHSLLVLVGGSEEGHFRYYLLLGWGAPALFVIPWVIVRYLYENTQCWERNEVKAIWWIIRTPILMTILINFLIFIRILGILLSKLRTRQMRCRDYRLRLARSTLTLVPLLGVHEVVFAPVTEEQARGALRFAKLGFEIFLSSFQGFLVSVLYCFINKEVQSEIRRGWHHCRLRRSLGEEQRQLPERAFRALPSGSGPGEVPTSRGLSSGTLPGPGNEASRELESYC
T22 sequence (Q92847 whole entry): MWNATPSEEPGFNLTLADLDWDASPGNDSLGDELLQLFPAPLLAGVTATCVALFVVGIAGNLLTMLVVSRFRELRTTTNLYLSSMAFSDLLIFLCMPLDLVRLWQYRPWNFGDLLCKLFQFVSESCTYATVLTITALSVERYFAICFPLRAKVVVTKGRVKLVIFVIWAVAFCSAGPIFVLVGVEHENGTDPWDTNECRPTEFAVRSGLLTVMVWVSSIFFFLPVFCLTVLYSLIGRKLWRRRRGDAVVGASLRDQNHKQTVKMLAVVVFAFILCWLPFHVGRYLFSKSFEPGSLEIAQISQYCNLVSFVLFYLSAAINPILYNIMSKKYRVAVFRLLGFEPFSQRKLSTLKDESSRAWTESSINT
T2 sequence (Q8TDS5 whole entry): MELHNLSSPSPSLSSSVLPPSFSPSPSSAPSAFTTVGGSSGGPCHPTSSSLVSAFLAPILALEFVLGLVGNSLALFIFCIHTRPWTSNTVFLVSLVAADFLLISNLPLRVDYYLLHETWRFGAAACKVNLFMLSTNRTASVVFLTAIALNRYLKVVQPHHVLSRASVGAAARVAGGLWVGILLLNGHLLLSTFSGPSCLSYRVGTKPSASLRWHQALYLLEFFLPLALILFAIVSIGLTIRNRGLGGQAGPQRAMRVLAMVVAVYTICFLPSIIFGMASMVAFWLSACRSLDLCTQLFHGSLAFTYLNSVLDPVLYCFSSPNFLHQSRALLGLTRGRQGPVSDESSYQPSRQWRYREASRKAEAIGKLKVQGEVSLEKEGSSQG
T18 sequence (O43193 whole entry): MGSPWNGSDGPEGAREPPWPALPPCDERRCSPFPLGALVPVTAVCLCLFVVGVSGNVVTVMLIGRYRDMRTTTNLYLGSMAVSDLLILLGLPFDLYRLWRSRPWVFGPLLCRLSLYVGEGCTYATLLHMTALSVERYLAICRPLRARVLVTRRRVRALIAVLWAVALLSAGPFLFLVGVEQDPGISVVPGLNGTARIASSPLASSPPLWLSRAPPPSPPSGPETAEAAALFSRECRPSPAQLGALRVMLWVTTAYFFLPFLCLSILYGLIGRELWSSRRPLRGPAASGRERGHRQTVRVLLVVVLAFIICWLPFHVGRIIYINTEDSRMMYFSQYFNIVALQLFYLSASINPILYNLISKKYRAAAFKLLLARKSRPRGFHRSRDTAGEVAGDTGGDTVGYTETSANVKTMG
T28 sequence (Q9GZQ6 whole entry): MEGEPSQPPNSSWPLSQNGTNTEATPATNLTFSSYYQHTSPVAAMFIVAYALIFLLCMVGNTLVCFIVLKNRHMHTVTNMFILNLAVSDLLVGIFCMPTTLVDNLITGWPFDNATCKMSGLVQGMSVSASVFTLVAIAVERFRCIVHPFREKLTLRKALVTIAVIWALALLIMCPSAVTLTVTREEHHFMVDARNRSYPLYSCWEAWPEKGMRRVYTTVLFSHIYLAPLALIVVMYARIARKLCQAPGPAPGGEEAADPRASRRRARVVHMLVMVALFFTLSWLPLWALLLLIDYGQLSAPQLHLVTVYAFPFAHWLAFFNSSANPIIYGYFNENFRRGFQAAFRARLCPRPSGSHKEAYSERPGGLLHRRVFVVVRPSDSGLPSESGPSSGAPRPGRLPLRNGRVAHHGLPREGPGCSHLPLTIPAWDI
T1 sequence (Q8IWK6 34-1321): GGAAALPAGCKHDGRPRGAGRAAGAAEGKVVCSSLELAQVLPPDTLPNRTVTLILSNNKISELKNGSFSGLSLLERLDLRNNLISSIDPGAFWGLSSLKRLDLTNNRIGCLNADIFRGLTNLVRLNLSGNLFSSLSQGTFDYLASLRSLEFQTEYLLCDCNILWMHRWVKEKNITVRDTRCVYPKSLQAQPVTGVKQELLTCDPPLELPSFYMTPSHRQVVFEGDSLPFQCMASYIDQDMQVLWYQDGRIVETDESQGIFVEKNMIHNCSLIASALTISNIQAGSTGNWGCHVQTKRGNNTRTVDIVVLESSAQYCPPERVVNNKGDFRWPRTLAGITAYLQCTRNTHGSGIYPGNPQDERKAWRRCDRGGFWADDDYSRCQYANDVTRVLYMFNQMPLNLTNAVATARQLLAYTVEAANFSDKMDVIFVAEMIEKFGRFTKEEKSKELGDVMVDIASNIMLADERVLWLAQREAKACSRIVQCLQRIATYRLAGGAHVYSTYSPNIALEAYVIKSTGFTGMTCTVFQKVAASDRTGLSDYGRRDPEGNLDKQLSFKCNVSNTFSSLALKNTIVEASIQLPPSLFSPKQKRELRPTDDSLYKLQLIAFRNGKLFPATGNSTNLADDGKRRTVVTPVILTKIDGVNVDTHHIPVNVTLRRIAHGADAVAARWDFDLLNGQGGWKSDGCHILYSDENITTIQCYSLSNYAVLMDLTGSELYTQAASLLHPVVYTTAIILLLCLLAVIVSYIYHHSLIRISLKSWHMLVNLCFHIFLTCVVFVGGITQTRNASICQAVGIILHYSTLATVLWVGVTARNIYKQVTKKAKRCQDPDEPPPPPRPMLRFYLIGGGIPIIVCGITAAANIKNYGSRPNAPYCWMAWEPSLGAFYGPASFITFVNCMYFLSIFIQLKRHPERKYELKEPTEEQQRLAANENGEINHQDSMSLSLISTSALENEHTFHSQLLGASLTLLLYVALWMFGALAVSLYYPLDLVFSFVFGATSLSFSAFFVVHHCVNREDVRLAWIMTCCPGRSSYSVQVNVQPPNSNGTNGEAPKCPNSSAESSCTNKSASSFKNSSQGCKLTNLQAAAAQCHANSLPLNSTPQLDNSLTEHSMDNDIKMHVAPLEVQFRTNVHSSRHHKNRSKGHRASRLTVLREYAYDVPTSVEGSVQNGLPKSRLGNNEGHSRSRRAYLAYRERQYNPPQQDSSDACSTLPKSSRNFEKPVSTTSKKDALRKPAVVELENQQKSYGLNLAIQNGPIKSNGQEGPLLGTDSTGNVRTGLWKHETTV

Row | Structure (SMILES) | GPCR activation (heatmap value) (GPR125) | GPCR activation (heatmap value) (OXER1) | GPCR activation (heatmap value) (ADORA2A) | GPCR activation (heatmap value) (PK2) | GPCR activation (heatmap value) (ADORA2B) | GPCR activation (heatmap value) (LPAR4) | GPCR activation (heatmap value) (P2RY12) | GPCR activation (heatmap value) (GPR20) | GPCR activation (heatmap value) (GPR150) | GPCR activation (heatmap value) (GPR158) | GPCR activation (heatmap value) (GPR6) | GPCR activation (heatmap value) (GABBR1) | GPCR activation (heatmap value) (GIPR) | GPCR activation (heatmap value) (CCRL2) | GPCR activation (heatmap value) (HTR1A) | GPCR activation (heatmap value) (GPRC5C) | GPCR activation (heatmap value) (OPRD1) | GPCR activation (heatmap value) (MLNR) | GPCR activation (heatmap value) (GPR174) | GPCR activation (heatmap value) (GPR26) | other results
1 | CC(C)Cc1ncc(CCCCNC(=N)N)[nH]c1=O [3-Homo] | -0.2637 | 0.0005851 | 0.2086 | -0.9094 | -1.632 | -0.163 | 0.3372 | 0.638 | -0.9768 | -0.4311 | 0.1759 | -1.048 | 0.1024 | 0.009703 | -0.3927 | 0.07279 | -0.6579 | -0.3794 | 0.4742 | -1.573 | GPCR activation (heatmap value) (GRM7): -0.0693; GPCR activation (heatmap value) (GHSR): 0.75; GPCR activation (heatmap value) (RXFP4): -0.8625; GPCR activation (heatmap value) (LPAR1): -0.9265; GPCR activation (heatmap value) (GPR149): 0.01685; GPCR activation (heatmap value) (GPR50): 0.1425; GPCR activation (heatmap value) (RXFP3): 0.07695; GPCR activation (heatmap value) (NPFF1): -0.4803; GPCR activation (heatmap value) (NTSR1): 0.1673; GPCR activation (heatmap value) (C5A): 0.3516; GPCR activation (heatmap value) (CCKAR): 0.3945; GPCR activation (heatmap value) (CXCR2): 0.01869; GPCR activation (heatmap value) (UTS2R): -1.423; GPCR activation (heatmap value) (GPR162): -0.5864; GPCR activation (heatmap value) (GPRC5B): 0.238
2 | CC(C)Cc1ncc(CCCNC(=N)N)[nH]c1=O [compound 3] | 0.4657 | -0.9579 | 0.347 | -0.4477 | 0.06134 | 0.3739 | 0.4559 | 1.634 | -0.9206 | -0.2474 | -1.168 | 0.7353 | 0.1911 | 0.3717 | -0.02258 | 0.188 | 1.451 | -1.345 | 0.3321 | 2.339 | GPCR activation (heatmap value) (GRM7): 0.04754; GPCR activation (heatmap value) (GHSR): -0.1187; GPCR activation (heatmap value) (RXFP4): -0.6712; GPCR activation (heatmap value) (LPAR1): -0.4869; GPCR activation (heatmap value) (GPR149): 0.9394; GPCR activation (heatmap value) (GPR50): 0.1425; GPCR activation (heatmap value) (RXFP3): -0.5079; GPCR activation (heatmap value) (NPFF1): 0.7283; GPCR activation (heatmap value) (NTSR1): -0.1053; GPCR activation (heatmap value) (C5A): 0.1076; GPCR activation (heatmap value) (CCKAR): 0.06622; GPCR activation (heatmap value) (CXCR2): 0.3766; GPCR activation (heatmap value) (UTS2R): 0.9484; GPCR activation (heatmap value) (GPR162): 0.329; GPCR activation (heatmap value) (GPRC5B): 0.6932

From paper PMC11480411, “Mucosal sugars delineate pyrazine vs pyrazinone autoinducer signaling in Klebsiella oxytoca” (Nature Communications, 2024)
